Experimental data reported in PMC10857906, “PROTAC-mediated NR4A1 degradation as a novel strategy for cancer immunotherapy” (The Journal of Experimental Medicine, 2024).

Key:
NR4A1 [1] = target: T1, NR4A1 (Homo sapiens, UniProt P22736); assay: NR4A1 degradation in CHL-1 human melanoma cells (immunoblotting); assay type: cell-based; details: CHL-1 cells, 16 h
T1 construct: NR-V04 effectively promoted the degradation of NR4A1 in two human melanoma cell lines within 16 h; endogenous in cells; host or cells: CHL-1, A375, WM164, M229 human melanoma cells
Method: Human melanoma cell lines: A375 and CHL-1 (gifts from Dr. D. Zhou, the University of Texas Health Science Center, San Antonio, TX, USA) were cultured in Dulbecco’s Modified Eagles’ Medium (DMEM, D5796; Sigma-Aldrich), WM164 and M229 (gifts from Dr. K.S.M. Smalley’s lab) were cultured in RPMI-1640 (R8758; Sigma-Aldrich). Mouse melanoma cell lines: B16F10 (CRL-6475, ATCC) was cultured in DMEM, SW1 and SM1 (gift from Dr. K.S.M. Smalley, Moffitt Cancer Center, Tampa, FL, USA) were cultured in RPMI. Human epithelial kidney cell lines: HEK293T (293T, CRL-3216; ATCC) and Vhl-KO-293T (gift from Dr. D. Zhou, the University of Texas Health Science Center, San Antonio, TX, USA) were cultured in DMEM. Mouse colon cancer cell lines: MC38 (ENH204-FP; Kerafast Inc.) was cultured in DMEM supplemented with 1 mM glutamine, […] non-essential amino acids (11140050; Thermo Fisher Scientific), 1 mM sodium pyruvate (11360070; Thermo Fisher Scientific), and 10 mM HEPES (15630080; Thermo Fisher Scientific). All cell culturing media were supplemented with 10% fetal bovine serum (FBS, F2442; Sigma-Aldrich), 100 U/ml penicillin, and 100 µg/ml streptomycin (P4333; Sigma-Aldrich).
Samples were lysed using radioimmunoprecipitation assay buffer (RIPA) lysis buffer (150 mM NaCl, 5 mM EDTA, 50 mM Tris pH 8.0, 0.5% sodium deoxycholate, 1% NP-40, 0.1% SDS) supplemented with 1 mM dithiothreitol and protease inhibitors. The lysates were separated by SDS-PAGE and analyzed using standard western blotting procedures ([Khan et al., 2019]). Antibodies: human NR4A1 (ab153914, 1:1,000; Abcam), mouse NR4A1 (14-5965-82, 1:1,000; Invitrogen), NR4A2 (AV38753, 1:1,000; Sigma-Aldrich), NR4A3 (TA804893, 1: 1,000; Thermo Fisher Scientific), VHL (68547, 1:1,000; Cell Signaling), β-actin (13E5, 1:5,000; Cell Signaling), β-tubulin (9F3, 1: 5,000; Cell Signaling), and GAPDH (D16H11, 1: 5,000; Cell Signaling) were employed for protein detection.

NR4A1 mRNA = NR4A1 mRNA by qPCR in CHL-1 cells; assay type: cell-based, human; details: 500 nM, ACTB as control
Method: Total RNA was extracted from cells using RNeasy Kits (74004; QIAGEN) following the manufacturer’s instructions. cDNA synthesis was performed using SuperScript III Reverse Transcriptase (18080044; Thermo Fisher Scientific) with 100 ng RNA as the template. Amplification of cDNA was carried out using 2× PowerUP SYBR Green Master Mix (A25778; Thermo Fisher Scientific). Each reaction was conducted in triplicates and results were normalized to the expression of a housekeeping gene. Primer (Eurofins): human β-actin (forward sequence: 5′-CACCATTGGCAATGAGCGGTTC-3′; reverse sequence: 5′-AGGTCTTTGCGGATGTCCACGT-3′) and human NR4A1 (forward sequence: 5′-GGACAACGCTTCATGCCAGCAT-3′; reverse sequence: 5′-CCTTGTTAGCCAGGCAGATGTAC-3′).

MC38 tumors = assay: MC38 colon cancer syngeneic tumor model; assay type: in vivo, mouse; details: MC38 in WT mice, 1.8 mg/kg NR-V04 or 0.75 mg/kg celastrol i.p. twice a week from day 7
Excerpt: (§1) 7–9-wk-old C57BL/6J, B6.129S2-Ighm^tm1Cgn/J (002288), B6.129S2-Nr4a1^tm1Jmi/J (NR4A1^−/−, 006187), and NOD-SCID interleukin-2 receptor gamma null (NSG) mice were purchased from Jackson Laboratories. For all studies involving NR-V04 and celastrol, the compounds were formulated in 50% phosal PG, 45% miglyol 810N, and 5% polysorbate 80 and administered via i.p. injection.
(§2) For syngeneic tumor models, 5 × 10^5 cells MC38, Yumm1.7, and Yummer1.7, 1 × 10^5 cells of B16F10 were resuspended in PBS and implanted into 7–9-wk-old mice subcutaneously. For the tumor inhibition experiment, mice were treated with 1.8 mg/kg NR-V04 or 0.75 mg/kg celastrol by i.p. injection twice weekly. For the immune profile experiment, once tumors reached 0.5 cm in diameter, mice were treated with 1.8 mg/kg NR-V04 by i.p. injection twice weekly. For the toxicity experiment, male and female non-tumor-bearing mice were treated with 2 mg/kg NR-V04 for two doses in the first week and 5 mg/kg for another two doses in the second week. Blood samples were taken from the submandibular (facial) vein before each treatment and 42 days later for hematological analysis, and body weight was measured twice per week up to day 42. Mice were euthanized in accordance with the IACUC protocol once the largest tumors reached 2 cm in diameter, and tissues were collected for further analysis.

B16F10 melanoma = B16F10 melanoma syngeneic tumor model; assay type: in vivo, mouse; details: B16F10 in WT mice, 1.8 mg/kg NR-V04 or 0.75 mg/kg celastrol i.p. twice a week from day 7
Excerpt: as §1, §2

NR4A1 [2] = details: ref Hu et al., 2017; read-out: binding affinity of celastrol to NR4A1 (Kd); cited from earlier work
NR4A1 and VHL = NR4A1 and VHL (Homo sapiens, UniProt P22736+P40337); assay: Proximity ligation assay (PLA) for the NR4A1-VHL ternary complex; assay type: cell-based; design: endogenous in cells; host or cells: CHL-1 and A375 human melanoma cells; details: CHL-1 and A375 cells, 500 nM, 16 h, 0.5 μM MG132 pretreatment
Method: 5 × 10^4 CHL-1 and A375 cells were cultured in Nunc Lab-Tek Chamber Slide (177402; Thermo Fisher Scientific). The cells were treated with DMSO, 500 nM celastrol, and 500 nM NR-V04 for 16 h with MG132 inhibitor. The PLA was conducted with Duolink In Situ Red Starter Kit Mouse/Rabbit (DUO92101; Sigma-Aldrich) following the standard protocol. Additionally, a non-stain cell group was included as a negative control to account for background signal during PLA assay. The signal was detected using a confocal microscope (LSM 710; Zeiss). Primary antibody: NR4A1 (HPA059742, 2 μg/ml, isotype-rabbit; Sigma-Aldrich) and VHL (MA5-13940, 2 μg/ml, isotype-mouse; Thermo Fisher Scientific).

T1 sequence (P22736 whole entry): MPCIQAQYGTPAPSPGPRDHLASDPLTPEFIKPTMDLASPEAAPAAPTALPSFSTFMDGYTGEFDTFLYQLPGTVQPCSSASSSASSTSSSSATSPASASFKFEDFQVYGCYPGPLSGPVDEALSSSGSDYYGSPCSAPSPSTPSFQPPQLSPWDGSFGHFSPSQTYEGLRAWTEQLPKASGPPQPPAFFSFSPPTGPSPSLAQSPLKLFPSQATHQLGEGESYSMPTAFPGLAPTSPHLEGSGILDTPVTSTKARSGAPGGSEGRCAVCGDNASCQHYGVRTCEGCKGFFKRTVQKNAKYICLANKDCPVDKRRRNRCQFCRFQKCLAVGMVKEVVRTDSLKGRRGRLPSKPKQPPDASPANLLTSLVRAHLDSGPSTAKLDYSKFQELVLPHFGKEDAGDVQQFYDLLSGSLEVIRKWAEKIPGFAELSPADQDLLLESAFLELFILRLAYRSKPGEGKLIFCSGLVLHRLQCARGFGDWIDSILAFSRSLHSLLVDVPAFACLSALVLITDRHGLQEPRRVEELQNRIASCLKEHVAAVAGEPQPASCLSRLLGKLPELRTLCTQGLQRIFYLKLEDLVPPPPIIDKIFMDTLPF
Chain of NR4A1 and VHL (P22736 whole entry): as above
Chain of NR4A1 and VHL (P40337 whole entry): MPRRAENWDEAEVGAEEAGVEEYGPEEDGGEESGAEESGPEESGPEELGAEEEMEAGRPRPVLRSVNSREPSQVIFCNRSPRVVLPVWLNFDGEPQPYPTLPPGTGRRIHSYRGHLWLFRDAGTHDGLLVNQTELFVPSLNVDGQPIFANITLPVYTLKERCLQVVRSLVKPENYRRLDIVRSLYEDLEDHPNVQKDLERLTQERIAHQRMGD
Chain of NR4A1 and VHL (Q15369 whole entry partner): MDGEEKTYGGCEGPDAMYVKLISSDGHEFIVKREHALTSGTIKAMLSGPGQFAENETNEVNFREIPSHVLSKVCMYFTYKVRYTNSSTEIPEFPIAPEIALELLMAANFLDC
Chain of NR4A1 and VHL (Q15370 whole entry partner): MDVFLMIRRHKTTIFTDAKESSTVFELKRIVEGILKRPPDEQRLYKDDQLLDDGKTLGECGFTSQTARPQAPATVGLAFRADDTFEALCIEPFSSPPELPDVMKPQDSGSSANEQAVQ

## CC1=C(O)C(=O)C=C2C1=CC=C1[C@@]2(C)CC[C@@]2(C)[C@@H]3C[C@](C)(C(=O)O)CC[C@]3(C)CC[C@]12C [celastrol, reference compound]
NR4A1 [1]; 250 nM, immunoblotting and densitometry
  NR4A1 protein level, initial screening: did not alter the protein level of NR4A1
NR4A1 [1]
  NR4A1 protein level, dose response: did not change NR4A1 protein level
NR4A1 mRNA
  NR4A1 mRNA level: increase in NR4A1 mRNA levels after 2 h
MC38 tumors
  tumor growth: failure to inhibit tumor growth of MC38 tumors
B16F10 melanoma
  tumor growth: increased growth of B16F10 tumors
NR4A1 [2]
  Kd: 290 nM
NR4A1 and VHL
  PLA signals (ternary complex formation NR4A1-VHL): did not
